Reference: PMC10870435, “A novel complement C3 inhibitor CP40-KK protects against experimental pulmonary arterial hypertension via an inflammasome NLRP3 associated pathway” (Journal of Translational Medicine, 2024)
Bridge positions count the residues as written; N and C are the ends. Square brackets hold non-standard residues; d marks the D form. Peptide text beside a SMILES is read from it. Trp(1-Me) = Cn1cc(C[C@H](N)C(=O)O)c2ccccc21; NMeI = CC[C@H](C)[C@H](NC)C(=O)O; Sar = CNCC(=O)O

Key:
Tail bleeding time = assay type: in vivo, rat; conditions: rats, after 2 weeks of treatment
[1] = system: MCT-induced rat PAH model; experiment: MCT-induced rat PAH model: hemodynamics, RV hypertrophy, vessel morphology; assay type: in vivo
Experimental: In the current study, two animal experiments were conducted successively. 30 rats were randomly divided into two groups (control group and MCT group, n = 15 per group) in the first experiment. MCT group rats received a single intraperitoneally injection of MCT (40 mg/kg) on day 1 to induce PAH while control group rats received an equivoluminal saline injection intraperitoneally. For the second animal experiment, the rats were assigned into four groups (control group, MCT group, CP40-KK group, and MCT + CP40-KK group, n = 15 per group). The control group was given the same volume of saline subcutaneously while the CP40-KK group rats only received CP40-KK (2 mg/kg) by subcutaneous injection from day 15 to day 28 continuously. The rats in the MCT group and MCT + CP40-KK group were received a single intraperitoneally injection of MCT (40 mg/kg) on day 1 and subcutaneously injected with either an equal volume of saline or CP40-KK (2 mg/kg) at day 15 to day 28 continuously. The dose selection of MCT and CP40-KK in our study was established based on previous studies.
Four weeks after the MCT injection, the experimental rats were weighed and anesthetized by intraperitoneal injecting pentobarbital sodium (40 mg/kg). After being anesthetized, rats were fixed in the supine position. A 3F polyethylene catheter filling with heparin was introduced into the right ventricle (RV) through the right jugular vein and the right atrium. Right ventricle systolic pressure (RVSP) was assessed by a pressure transducer and PowerLab system (AD Instruments, Australia). Pressure recordings were measured over a 2 min period and analyzed with Powerlab Pro Software (AD Instruments, Australia). After the hemodynamic study, the rats were euthanized by an overdose of anesthesia, and their lungs and hearts were dissected for further evaluation. The dry weights of the RV and left ventricle (LV) + septum were measured to calculate the RV/(LV + S) ratio and the RV / body weight (RV/BW). The left lung was fixed in 4% paraformaldehyde, and the right lung was snap-frozen in liquid nitrogen and stored at − 80 °C for further analysis.
Fixed lung samples were further fixed in 4% buffered paraformaldehyde for 24 h, embedded in paraffin, and processed for sectioning at 5 μm thick. Hematoxylin and eosin (H&E) staining were performed on paraffin-fixed lung tissue slides. The percent medial wall thickness (WT%) and percent medial wall area (WA%) were used to assess the extent of pulmonary vascular remodeling. WT% = (external diameter − internal diameter)/(external diameter) × 100%; WA% = (external area − internal area)/external area × 100%. All data were obtained and analyzed in a blinded manner.

[2] = Plasma lipids and lung oxidative stress markers in PAH rats; assay type: in vivo, rat
Experimental: Blood samples were obtained from rats, and plasma lipid levels were measured with a total cholesterol assay kit and triglyceride assay kit (Nanjing Jiancheng Bioengineering Institute, Nanjing City, China). 2.5μL plasma or 2.5μL calibrator was added into 250μL working solution, and then incubated at 37 ℃ for 10 minutes. OD values were measured at 500nm using a microplate reader (Bio-tek, Vermont, USA).
Figure S2. The effect of CP40-KK on oxidative stress in the lungs of the PAH rats. Representative Western blots (A) and quantification (B) of the NOX1, Gp91phox, NOX4 and SOD2 in lung homogenates of rat (B; n=6 per group).

[3] = MCT 40 mg/kg i.p. day 1, 2 mg/kg/day s.c. day 15-28, vs MCT group, n = 6 per group

CC[C@H](C)[C@H](NC(=O)[C@H](N)Cc1ccc(O)cc1)C(=O)N[C@H]1CSSC[C@@H](C(=O)N(C)[C@H](C(=O)N[C@@H](CCCCN)C(=O)N[C@@H](CCCCN)C(N)=O)[C@@H](C)CC)NC(=O)[C@H](CCCNC(=N)N)NC(=O)[C@H](Cc2c[nH]cn2)NC(=O)CN(C)C(=O)[C@H](Cc2c[nH]c3ccccc23)NC(=O)[C@H](CC(=O)O)NC(=O)[C@H](CCC(N)=O)NC(=O)[C@H](Cc2cn(C)c3ccccc23)NC(=O)[C@H](C(C)C)NC1=O [CP40-KK] (H-[dY]ICV[Trp(1-Me)]QDW[Sar]HRC[NMeI]KK-NH2; disulfide 3-12 (inferred))
tail bleeding time (Tail bleeding time): significantly prolong | RV / (LV + S) ratio [1, 3]: significantly ameliorate | RV / BW ratio [1, 3]: significantly ameliorate | RVSP [1, 3]: significantly ameliorate | pulmonary wall thickness index WA% [1, 3]: significantly ameliorate | pulmonary wall thickness index WT% [1, 3]: significantly ameliorate | PAH-related indices, CP40-KK only group vs saline only group ([1]; rats without MCT, 2 mg/kg s.c. day 15-28): no significant effect | effect on oxidative stress (NOX1, Gp91phox, NOX4, SOD2) ([2]; lung homogenates, western blot, Figure S2, n=6 per group): no effect | effect on lipid metabolism (triglyceride, cholesterol) ([2]; rat plasma, PAH model groups, Figure S1): no effect
